From publication PMC5602538, “Assessment of the Drug Interaction Potential of Unconjugated and GalNAc3-Conjugated 2′-MOE-ASOs” (Molecular Therapy. Nucleic Acids, 2017)

Columns and labels:
[1] = system: T1, OATP1B1; test: OATP1B1 inhibition study in MDCK cells; assay type: in vitro ADME; details: MDCK-II cell monolayer expressing OATP1B1, probe [3H]-estradiol-17β-D-glucuronide; rifampicin 100 μM, 2 μM substrate; read-out: % inhibition of OATP1B1-mediated transport of estradiol-17β-D-glucuronide, reference inhibitor
T1 construct: expressed in transfected cells; host or cells: MDCK-II
Method: (§1) A 96-well cell culture plate containing a monolayer of MDCK-II cells grown on a permeable support and a corresponding receiver tray was used. The basolateral compartment of the culture plate and wells were washed with warm HBSS three times, with wells of the culture plate serving as the apical compartment. The wash was aspirated by adding 150 μL of 37°C HBSS to both compartments. Plates were incubated at 37°C with orbital shaking at 60 rpm for 15 min for OAT1, OAT3, OCT1, OCT2, OATP1B1, and OATP1B3 (±5 min). The pre-incubation buffer from both compartments was aspirated and 150 μL of the following was added to the basal compartment. […] Test article concentrations, including control samples, were evaluated by an LC-MS method.
(§2) Signal to noise for probe substrates was calculated by dividing the uptake of the probe substrate in transporter-expressing cells by the uptake of probe substrate in control cells not expressing the transporter of interest. Percent inhibition was calculated by dividing the net-transporter-mediated substrate uptake in the presence of the test article or the reference inhibitor by the net-transporter-mediated substrate uptake in the absence of the inhibitor according to the equation: %inhibition=100−(100×(transporter-mediateduptake)withinhibitor/(transporter-mediateduptake)withoutinhibitor).

[2] = system: T2, OATP1B3; test: OATP1B3 inhibition study in MDCK cells; assay type: in vitro ADME; details: MDCK-II cell monolayer expressing OATP1B3, probe [3H]-cholecystokinin octapeptide (CCK-8); rifampicin 100 μM, 2 μM CCK-8; read-out: % inhibition of OATP1B3-mediated transport of CCK-8, reference inhibitor
T2 construct: expressed in transfected cells; host or cells: MDCK-II
Method: A 96-well cell culture plate containing a monolayer of MDCK-II cells grown on a permeable support and a corresponding receiver tray was used. The basolateral compartment of the culture plate and wells were washed with warm HBSS three times, with wells of the culture plate serving as the apical compartment. The wash was aspirated by adding 150 μL of 37°C HBSS to both compartments. Plates were incubated at 37°C with orbital shaking at 60 rpm for 15 min for OAT1, OAT3, OCT1, OCT2, OATP1B1, and OATP1B3 (±5 min). The pre-incubation buffer from both compartments was aspirated and 150 μL of the following was added to the basal compartment. […] Samples containing probe substrate were added to 200 μL of scintillation fluid and counted on a 1450 Microbeta (PerkinElmer), whereas samples containing the test article were kept frozen. Test article concentrations, including control samples, were evaluated by an LC-MS method.
Signal to noise for probe substrates was calculated by dividing the uptake of the probe substrate in transporter-expressing cells by the uptake of probe substrate in control cells not expressing the transporter of interest. […]

[3] = system: T3, OAT3; test: OAT3 inhibition study in MDCK cells; assay type: in vitro ADME; details: MDCK-II cell monolayer expressing OAT3, probe [3H]-p-aminohippurate; probenecid 100 μM, 10 μM p-aminohippurate; read-out: % inhibition of OAT3-mediated transport of p-aminohippurate, reference inhibitor
T3 construct: expressed in transfected cells; host or cells: MDCK-II
Method: A 96-well cell culture plate containing a monolayer of MDCK-II cells grown on a permeable support and a corresponding receiver tray was used. The basolateral compartment of the culture plate and wells were washed with warm HBSS three times, with wells of the culture plate serving as the apical compartment. The wash was aspirated by adding 150 μL of 37°C HBSS to both compartments. […] The pre-incubation buffer from both compartments was aspirated and 150 μL of the following was added to the basal compartment. […] OATP1B1, 2 μM [^3H]-estradiol-17 β-D-glucuronide; and OATP1B3, 2 μM [^3H]-cholecystokinin octapeptide (CCK-8). […] Plates were incubated at 37°C with orbital shaking at 60 rpm for 5 min. Both sides of the permeable support were washed four times with ice-cold PBS and 60 μL of cell extraction solution was added to each well. Plates were agitated for 15 min at 120 rpm, after which a 30-μL sample of the extract was collected. […] Test article concentrations, including control samples, were evaluated by an LC-MS method. Signal to noise for probe substrates was calculated by dividing the uptake of the probe substrate in transporter-expressing cells by the uptake of probe substrate in control cells not expressing the transporter of interest.

[4] = system: CYP1A2; test: CYP1A2 enzyme activity induction in plated human hepatocytes; details: human, probe phenacetin, 100 μM
Method: (§3) Upon receipt, sandwich-cultured cryopreserved human hepatocytes (with Matrigel) plated on collagen-coated 24-well plates were inspected under a microscope for general morphology and viability. Fresh culture medium (OptiCulture Hepatocyte Media) was added to each plate that passed the visual inspection. The plates were then placed in an incubator set to 37°C with 5% carbon dioxide (CO2) for overnight acclimation. […] During this time, cells in parallel wells were also treated with 50.0 μM omeprazole (inducer of CYP1A2), 1,000 μM phenobarbital (inducer of CYP2B6), or 10.0 μM rifampicin (inducer of CYP3A4) in triplicate, respectively.
(§4) The plates were then incubated at 37°C with 5% CO2 for 60 min. […] Aliquots of the supernatants were analyzed by LC-MS/MS for the formation of acetaminophen, hydroxyl-bupropion, or hydroxyl-midazolam as markers for enzyme activity of CYP1A2, CYP2B6, and CYP3A4, respectively.
(§5) The activity of each CYP enzyme was measured by comparing the peak area ratio of the corresponding product to the peak area ratio of the internal standard. The fold induction was calculated by dividing the peak area ratio of each individual well from the treatment group by the mean of the peak area ratios obtained from the vehicle control wells. […] The ΔCƬ was calculated as follows: ΔCƬ = CƬ (CYP) − CƬ (GAPDH). […] The ΔΔCƬ was calculated as follows: ΔΔCƬ = Δ CƬ (Treatment) − Δ CƬ (Vehicle). […]

[5] = system: CYP1A2 mRNA; test: in vitro; details: human
Method: as §3
(§6) After collection of the supernatant for catalytic analysis, the remaining cells were washed and lysed with QIAGEN Buffer RLT from the QIAGEN RNeasy Kit. […]
(§7) The activity of each CYP enzyme was measured by comparing the peak area ratio of the corresponding product to the peak area ratio of the internal standard. The fold induction was calculated by dividing the peak area ratio of each individual well from the treatment group by the mean of the peak area ratios obtained from the vehicle control wells. […] The ΔCƬ was calculated as follows: ΔCƬ = CƬ (CYP) − CƬ (GAPDH). […] The ΔΔCƬ was calculated as follows: ΔΔCƬ = Δ CƬ (Treatment) − Δ CƬ (Vehicle). The fold induction of the target CYP was calculated using the following equation: Fold=2^-ΔΔCT.

[6] = target: T4, CYP2C8 (Homo sapiens, UniProt P10632); details: hepatocytes
T4 sequence (P10632 1-490): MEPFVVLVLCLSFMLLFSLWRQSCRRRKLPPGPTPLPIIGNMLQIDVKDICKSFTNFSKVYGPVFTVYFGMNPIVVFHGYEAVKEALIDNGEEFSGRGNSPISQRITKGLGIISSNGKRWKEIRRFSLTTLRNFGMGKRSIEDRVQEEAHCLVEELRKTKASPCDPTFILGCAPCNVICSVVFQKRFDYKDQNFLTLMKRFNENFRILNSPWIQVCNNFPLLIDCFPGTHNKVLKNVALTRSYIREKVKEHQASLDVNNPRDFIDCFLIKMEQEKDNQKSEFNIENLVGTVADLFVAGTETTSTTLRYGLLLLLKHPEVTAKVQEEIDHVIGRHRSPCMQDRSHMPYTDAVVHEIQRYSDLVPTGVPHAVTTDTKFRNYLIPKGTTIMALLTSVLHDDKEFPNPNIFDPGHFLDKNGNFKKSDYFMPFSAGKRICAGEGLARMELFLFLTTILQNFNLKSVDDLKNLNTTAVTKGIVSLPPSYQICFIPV
Method: Preincubations were performed in 50 μL of Williams’ Medium E with 2 mM salicylamide. The salicylamide was included to reduce possible phase II conjugation to the precursor phase I metabolites. […] Human hepatocytes (pooled from 5 donors) were thawed and prepared according to the vendor’s protocol. […] Incubations were carried out at 37°C with 5% CO2. The incubation time was 45 min for phenacetin, diclofenac, dextromethorphan, midazolam, bupropion, chlorzoxazone, and testosterone and 90 min for paclitaxel and (S)-mephenytoin. The reactions were stopped by adding 200 μL of ice-cold acetonitrile (can) with tolbutamide (100 ng/mL) as the internal standard to 100 μL of hepatocyte suspension (1:2, v/v). The 96-well plate was then vortexed at 1,700 rpm for 3 min and centrifuged at 3,500 rpm for 10 min at 20°C. The supernatants were analyzed using liquid chromatography-tandem MS (LC-MS/MS).

[7] = system: BCRP; details: Ko143 1 μM, 2 μM prazosin
[8] = system: T5, OCT1; test: OCT1 inhibition study in MDCK cells; assay type: in vitro ADME; details: MDCK-II cell monolayer expressing OCT1, probe [3H]-MPP+, 2 μM; read-out: % inhibition of OCT1-mediated transport of MPP+, reference inhibitor
T5 construct: expressed in transfected cells; host or cells: MDCK-II
Method: as §1, §2

[9] = system: T6, OCT2; test: OCT2 inhibition study in MDCK cells; assay type: in vitro ADME; details: MDCK-II cell monolayer expressing OCT2, probe [14C]-metformin, 10 μM; read-out: % inhibition of OCT2-mediated transport of metformin, reference inhibitor
T6 construct: expressed in transfected cells; host or cells: MDCK-II
Method: as §1, §2

[10] = system: CYP2B6; test: CYP2B6 enzyme activity induction in plated human hepatocytes; details: human
Method: as §3, §4, §5

[11] = system: CYP2B6 mRNA; test: CYP2B6 mRNA induction in plated human hepatocytes; details: human
Method: as §3, §6, §7

## CO[C@H]1/C=C/O[C@@]2(C)Oc3c(C)c(O)c4c(O)c(c(/C=N/N5CCN(C)CC5)c(O)c4c3C2=O)NC(=O)/C(C)=C\C=C\[C@H](C)[C@H](O)[C@@H](C)[C@@H](O)[C@@H](C)[C@H](OC(C)=O)[C@@H]1C [rifampicin, reference compound]
[1]
  inhibition at 5 min, 100 μM: 98.8 ± 1.09%
[2]
  inhibition at 5 min, 100 μM: 99 ± 0.955%

## CCCN(CCC)S(=O)(=O)c1ccc(C(=O)O)cc1 [probenecid, reference compound]
[3]
  inhibition at 5 min, 100 μM: ≤ 98.3%

## COc1ccc2[nH]c([S+]([O-])Cc3ncc(C)c(OC)c3C)nc2c1 (centres unmarked) [omeprazole, reference compound]
[4]
  fold induction at 72 h, 50 μM: 50.6 ± 3.78
[5]
  fold induction at 72 h, 50 μM: 45.7 ± 4.51

## Cc1ccc(C)c(OCCCC(C)(C)C(=O)O[C@@H]2O[C@H](C(=O)O)[C@@H](O)[C@H](O)[C@H]2O)c1 [gemfibrozil glucuronide, reference compound]
[6]
  IC50: 960 nM

## COc1ccc2c3c([nH]c2c1)[C@H](CC(C)C)N1C(=O)[C@H](CCC(=O)OC(C)(C)C)NC(=O)[C@@H]1C3 [Ko143]
[7]
  % inhibition of BCRP-mediated transport of prazosin, reference inhibitor: 90.4 ± 1.89%

## C=C[C@H]1C[N@@]2CC[C@H]1C[C@@H]2[C@@H](O)c1ccnc2ccc(OC)cc12 [quinidine]
[8]
  inhibition at 5 min, 1000 μM: 91.2 ± 1.57%
[9]
  inhibition at 5 min, 1000 μM: 98.5 ± 1.34%

## CCC1(c2ccccc2)C(=O)NC(=O)NC1=O [phenobarbital, reference compound]
[10]
  fold induction at 72 h, 1000 μM: 5.03 ± 1.06
[11]
  fold induction at 72 h, 1000 μM: 9.83 ± 0.992
